# Like-named read-outs stand apart in the source and are kept apart here.
# Target: Bovine Serum Albumin (Bos taurus, UniProt P02769)
# Assay: Bovine Serum Albumin Assay (BSA), inhibition of heat-induced protein denaturation (in vitro anti-inflammatory activity)
# Assay type: biochemical
# Experimental: Bovine Serum Albumin Assay (BSA) In vitro-inflammatory activities of the tested samples were determined using a modified method of the BSA assay reported by Williams et al. BSA solution (0.4%, w/v) was prepared in Tris Buffered Saline. The pH was adjusted to 6.4 with glacial acetic acid. Different dilutions of 20, 40, 60, 80, and 100 μg/mL of 1-cyclopropyl-6-fluoro-4-oxo-7-(4-((5-oxo-2-phenyl-4-(quinolin-2-ylmethylene)-4,5-dihydro-1H-imidazol-1-yl)methyl)piperazin-1-yl)-1,4-dihydroquinoline-3-carboxylic acid in the stock solutions were added to test tubes containing 1 mL of 0.4%, w/v BSA buffer solution. Both negative (solvent) and positive (aspirin) controls were assayed in a similar manner. The solutions were then heated in a water bath at 72° C. for 10 minutes and cooled for 20 minutes under laboratory conditions. The turbidity of the solutions (level of protein precipitation) was measured at 660 nm in Spectrophotometer (V-770 UV-Visible/NIR Spectrophotometer). The percentage inhibition of precipitation (protein denaturation) was determined relative to the negative control using the following equation: [formula] [formula]
# [1] = read-out: percentage inhibition of precipitation (protein denaturation)
# Bovine Serum Albumin, sequence (P02769 25-607): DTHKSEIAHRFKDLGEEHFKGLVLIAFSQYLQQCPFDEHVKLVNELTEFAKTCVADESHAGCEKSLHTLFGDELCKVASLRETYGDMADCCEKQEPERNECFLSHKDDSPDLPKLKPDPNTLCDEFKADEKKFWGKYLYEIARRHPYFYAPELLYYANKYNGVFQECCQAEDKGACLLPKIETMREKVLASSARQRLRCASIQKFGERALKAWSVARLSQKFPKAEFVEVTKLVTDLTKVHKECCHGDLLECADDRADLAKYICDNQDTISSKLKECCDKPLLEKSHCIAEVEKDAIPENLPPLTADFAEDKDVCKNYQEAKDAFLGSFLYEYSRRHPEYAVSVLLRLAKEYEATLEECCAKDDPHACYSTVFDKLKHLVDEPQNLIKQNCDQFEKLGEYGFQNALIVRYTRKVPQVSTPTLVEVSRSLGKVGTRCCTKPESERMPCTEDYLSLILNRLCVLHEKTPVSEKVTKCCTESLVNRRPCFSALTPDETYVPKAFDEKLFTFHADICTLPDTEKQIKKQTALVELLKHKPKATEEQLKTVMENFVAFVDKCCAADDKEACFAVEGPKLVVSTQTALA
smiles,measurement,setting,value
"O=C(O)c1cn(C2CC2)c2cc(N3CCN(Cn4nc(/N=C/c5ccc(Cl)cc5Cl)sc4=S)CC3)c(F)cc2c1=O [Present compound, 1-cyclopropyl-7-(4-((5-(2,4-dichlorobenzylideneamino)-2-thioxo-1,3,4-thiadiazol-3(2H)-yl)methyl)piperazin-1-yl)-6-fluoro-4-oxo-1,4-dihydroquinoline-3-carboxylic acid]",in vitro anti-inflammatory effect,"BSA assay, result in words",considerable anti-inflammatory effect
same,inhibition at 20 µg/mL,[1],68.2%
same,inhibition at 40 µg/mL,[1],75.7%
same,inhibition at 60 µg/mL,[1],79.1%
same,inhibition at 80 µg/mL,[1],83.8%
same,inhibition at 100 µg/mL,[1],87.6%
"CC(=O)Oc1ccccc1C(=O)O [P.C, aspirin, reference compound]",inhibition at 100 µg/mL,"concentration 100 μg/ml, 72° C. 10 minutes, turbidity at 660 nm, read-out: percentage inhibition of precipitation (protein denaturation)",90.7%
